Experimental data published in patent publication US10537104B2, “Insecticide mixtures comprising loline alkaloids” (SYNGENTA PARTICIPATIONS AG, priority 2016, dated 2020).

What was measured:
Myzus persicae = assay: Tests against Myzus persicae: sprayed sunflower leaf discs, mortality; type: in vivo; conditions: 6 days after infestation
Text: (§1) A synergistic effect exists whenever the action of an active ingredient combination is greater than the sum of the actions of the individual components. The action to be expected E for a given active ingredient combination obeys the so-called COLBY formula and can be calculated as follows (COLBY, S. R. “Calculating synergistic and antagonistic responses of herbicide combination”. Weeds, Vol. 15, pages 20-22 1967):
(§2) According to Colby, the expected (additive) action of active ingredients A+B using p+q ppm of active ingredient is
(§3) If the action actually observed O is greater than the expected action E, then the action of the combination is super-additive, i.e. there is a synergistic effect. In mathematical terms, synergism corresponds to a positive value for the difference of (O-E). In the case of purely complementary addition of activities (expected activity), said difference (O-E) is zero. A negative value of said difference (O-E) signals a loss of activity compared to the expected activity.
Component (A1) is a mixture of NAL, NFL and NANL in a weight ratio of about approximately 1:4:2. Stock solutions of thiamethoxam and flonicamid were prepared respectively by dissolving the technical active ingredient in DMSO. The aqueous test solutions were prepared by mixing together the appropriate stock solutions to the desired concentrations.
Tests Against Myzus persicae
Sunflower leaf discs were placed on agar in a 24-well microtiter plate and sprayed with aqueous test solutions prepared from DMSO stock solutions. After drying, the leaf discs were infested with an aphid population of mixed ages. The samples were assessed for mortality 6 days after infestation.

Thrips tabaci = assay: Tests against Thrips tabaci: sprayed sunflower leaf discs, mortality; type: in vivo; conditions: 6 days after infestation
Text: as §1, §2, §3
Component (A1) is a mixture of NAL, NFL and NANL in a weight ratio of about approximately 1:4:2. […]
Sunflower leaf discs were placed on agar in 24-well microtiter plates and sprayed with aqueous test solutions prepared from DMSO stock solutions. […] The samples were assessed for mortality 6 days after infestation.

Row | SMILES | mortality at 0.4 ppm (Myzus persicae; Myzus persicae, foliar, 144 h, thiamethoxam 0.4 ppm alone, read-out: % Mortality Measured) [%] | mortality at 0.8 ppm (Myzus persicae; Myzus persicae, foliar, 144 h, thiamethoxam 0.8 ppm alone, read-out: % Mortality Measured) [%] | mortality at 1.6 ppm (Myzus persicae; Myzus persicae, foliar, 144 h, thiamethoxam 1.6 ppm alone, read-out: % Mortality Measured) [%] | % Mortality Measured (Myzus persicae; flonicamid 3.125 ppm alone) [%] | % Mortality Measured (Myzus persicae; flonicamid 6.25 ppm alone) [%] | % Mortality Measured (Myzus persicae; flonicamid 12.5 ppm alone) [%] | % Mortality Measured (Thrips tabaci; flonicamid 100 ppm alone) [%] | % Mortality Measured (Thrips tabaci; flonicamid 200 ppm alone) [%]
1 | CN1COCN(Cc2cnc(Cl)s2)/C1=N\[N+](=O)[O-] [Thiamethoxam, thiamethoxam] | 0 | 0 | 45 | – | – | – | – | –
2 | N#CCNC(=O)c1cnccc1C(F)(F)F [Flonicamid, flonicamid] | – | – | – | 0 | 65 | 90 | 0 | 0
